Experimental data as given in PubChem BioAssay (NCI).
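Five compound concentrations were applied to cells in 96-well plates for 48 hours; endpoints were derived by simple linear interpolation of the resulting dose-response curve. At the TGI there is no net growth.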

What was measured:
Assay in all cases: growth of human tumour cells (NCI), 48 h
K-562 leukemia = test system: K-562 leukemia
M14 melanoma = test system: M14 melanoma
HCC-2998 colon = test system: HCC-2998 colon
HCT-116 colon = test system: HCT-116 colon
KM20L2 colon = test system: KM20L2 colon
LOX IMVI melanoma = test system: LOX IMVI melanoma
ACHN renal = test system: ACHN renal
IGROV1 ovarian = test system: IGROV1 ovarian
U251 CNS = test system: U251 CNS
DMS 273 small cell lung = test system: DMS 273 small cell lung
EKVX NSCLC = test system: EKVX NSCLC
NCI-H23 lung = test system: NCI-H23 lung
UACC-257 melanoma = test system: UACC-257 melanoma
SF-268 CNS = test system: SF-268 CNS
HCT-15 colon = test system: HCT-15 colon
NCI-H460 lung = test system: NCI-H460 lung
SNB-19 CNS = test system: SNB-19 CNS
KM12 colon = test system: KM12 colon
RXF 393 renal = test system: RXF 393 renal
SK-MEL-28 melanoma = test system: SK-MEL-28 melanoma
M19-MEL melanoma = test system: M19-MEL melanoma
MALME-3M melanoma = test system: MALME-3M melanoma
NCI-H226 lung = test system: NCI-H226 lung
CCRF-CEM leukemia = test system: CCRF-CEM leukemia
SN12C renal = test system: SN12C renal
A549 NSCLC = test system: A549 NSCLC
OVCAR-8 ovarian = test system: OVCAR-8 ovarian
SF-539 CNS = test system: SF-539 CNS
DMS 114 small cell lung = test system: DMS 114 small cell lung
SF-295 CNS = test system: SF-295 CNS
HL-60(TB) leukemia = test system: HL-60(TB) leukemia
UO-31 renal = test system: UO-31 renal
TK-10 renal = test system: TK-10 renal
OVCAR-5 ovarian = test system: OVCAR-5 ovarian
HOP-18 NSCLC = test system: HOP-18 NSCLC
DLD-1 colon = test system: DLD-1 colon
CAKI-1 renal = test system: CAKI-1 renal
COLO 205 colon = test system: COLO 205 colon
MOLT-4 leukemia = test system: MOLT-4 leukemia
NCI-H522 lung = test system: NCI-H522 lung
SK-OV-3 ovarian = test system: SK-OV-3 ovarian
HT29 colon = test system: HT29 colon
SW-620 colon = test system: SW-620 colon
SK-MEL-2 melanoma = test system: SK-MEL-2 melanoma
HOP-92 NSCLC = test system: HOP-92 NSCLC
LXFL 529 NSCLC = test system: LXFL 529 NSCLC
HOP-62 NSCLC = test system: HOP-62 NSCLC
OVCAR-4 ovarian = test system: OVCAR-4 ovarian
786-0 renal = test system: 786-0 renal
SNB-75 CNS = test system: SNB-75 CNS
SNB-78 CNS = test system: SNB-78 CNS
OVCAR-3 ovarian = test system: OVCAR-3 ovarian
UACC-62 melanoma = test system: UACC-62 melanoma
SR leukemia = test system: SR leukemia
XF 498 CNS = test system: XF 498 CNS
RPMI-8226 leukemia = test system: RPMI-8226 leukemia

Q: What does the source list for C=C(/C=C/C=C(/CCC=C(C)C)COC(C)=O)[C@@H]1CC[C@]2([C@H](CCCO)/C(=C(/C)C=O)CC[C@]2(C)O)[C@@H]1O?
A: TGI (K-562 leukemia): 30.2 µM; TGI (M14 melanoma): 23.5 µM; TGI (HCC-2998 colon): 20.3 µM; TGI (HCT-116 colon): 45.6 µM; TGI (KM20L2 colon): 27.9 µM; TGI (LOX IMVI melanoma): 27.4 µM; TGI (ACHN renal): 27.6 µM; TGI (IGROV1 ovarian): 36.2 µM; TGI (U251 CNS): 30.7 µM; TGI (DMS 273 small cell lung): 21.1 µM; TGI (EKVX NSCLC): 42.2 µM; TGI (NCI-H23 lung): 35.5 µM; TGI (UACC-257 melanoma): 32.6 µM; TGI (SF-268 CNS): 41.9 µM; TGI (HCT-15 colon): 30.4 µM; TGI (NCI-H460 lung): 24.3 µM; TGI (SNB-19 CNS): 29.7 µM; TGI (KM12 colon): 32.4 µM; TGI (RXF 393 renal): 33.1 µM; TGI (SK-MEL-28 melanoma): 26.9 µM; TGI (M19-MEL melanoma): 33.3 µM; TGI (MALME-3M melanoma): 15.7 µM; TGI (NCI-H226 lung): 19.6 µM; TGI (CCRF-CEM leukemia): 4.97 µM; TGI (SN12C renal): 29.9 µM; TGI (A549 NSCLC): 26.2 µM; TGI (OVCAR-8 ovarian): 52.3 µM; TGI (SF-539 CNS): 28.5 µM; TGI (DMS 114 small cell lung): 28.8 µM; TGI (SF-295 CNS): 19.6 µM; TGI (HL-60(TB) leukemia): 11.1 µM; TGI (UO-31 renal): 25.6 µM; TGI (TK-10 renal): 31.3 µM; TGI (OVCAR-5 ovarian): 53.7 µM; TGI (HOP-18 NSCLC): 23.7 µM; TGI (DLD-1 colon): 30.4 µM; TGI (CAKI-1 renal): 17.5 µM; TGI (COLO 205 colon): 7.06 µM; TGI (MOLT-4 leukemia): 34.9 µM; TGI (NCI-H522 lung): 32.6 µM; TGI (SK-OV-3 ovarian): 54.5 µM; TGI (HT29 colon): 28.4 µM; TGI (SW-620 colon): 22 µM; TGI (SK-MEL-2 melanoma): 33 µM

Q: For CC1=C(CC/C(C)=C/CCC2(C)CCC([C@H](C)C(=O)O)OO2)C(C)(C)CCC1 (stereo partly specified) (tested in a mixture with another compound), which TGI (HOP-92 NSCLC) is on record?
A: > 100 µM

Q: And the TGI (M14 melanoma)?
A: > 100 µM

Q: And the TGI (HCC-2998 colon)?
A: > 100 µM

Q: What about the TGI (HCT-116 colon) of the same molecule?
A: > 100 µM

Q: And the TGI (KM20L2 colon)?
A: > 100 µM

Q: And the TGI (LOX IMVI melanoma)?
A: > 100 µM

Q: And the TGI (ACHN renal)?
A: > 100 µM

Q: And the TGI (LXFL 529 NSCLC)?
A: > 100 µM

Q: And the TGI (U251 CNS)?
A: > 100 µM

Q: And the TGI (DMS 273 small cell lung)?
A: > 100 µM

Q: And the TGI (EKVX NSCLC)?
A: > 100 µM

Q: What about the TGI (NCI-H23 lung) of the same molecule?
A: > 100 µM

Q: And the TGI (UACC-257 melanoma)?
A: > 100 µM

Q: What about the TGI (HOP-62 NSCLC) of the same molecule?
A: > 100 µM

Q: What about the TGI (SF-268 CNS) of the same molecule?
A: > 100 µM

Q: What about the TGI (OVCAR-4 ovarian) of the same molecule?
A: > 100 µM

Q: What about the TGI (NCI-H460 lung) of the same molecule?
A: > 100 µM

Q: And the TGI (SNB-19 CNS)?
A: > 100 µM

Q: What about the TGI (786-0 renal) of the same molecule?
A: > 100 µM

Q: What about the TGI (KM12 colon) of the same molecule?
A: > 100 µM

Q: What about the TGI (RXF 393 renal) of the same molecule?
A: > 100 µM

Q: And the TGI (SK-MEL-28 melanoma)?
A: > 100 µM

Q: What about the TGI (M19-MEL melanoma) of the same molecule?
A: > 100 µM

Q: And the TGI (SNB-75 CNS)?
A: > 100 µM

Q: And the TGI (MALME-3M melanoma)?
A: > 100 µM

Q: And the TGI (NCI-H226 lung)?
A: > 100 µM

Q: And the TGI (SN12C renal)?
A: > 100 µM

Q: What about the TGI (A549 NSCLC) of the same molecule?
A: > 100 µM

Q: And the TGI (OVCAR-8 ovarian)?
A: > 100 µM

Q: What about the TGI (SF-539 CNS) of the same molecule?
A: > 100 µM

Q: And the TGI (SNB-78 CNS)?
A: > 100 µM

Q: What about the TGI (DMS 114 small cell lung) of the same molecule?
A: > 100 µM

Q: And the TGI (SF-295 CNS)?
A: > 100 µM

Q: What about the TGI (HL-60(TB) leukemia) of the same molecule?
A: > 100 µM

Q: What about the TGI (UO-31 renal) of the same molecule?
A: > 100 µM

Q: And the TGI (TK-10 renal)?
A: > 100 µM

Q: What about the TGI (OVCAR-5 ovarian) of the same molecule?
A: > 100 µM

Q: And the TGI (DLD-1 colon)?
A: > 100 µM

Q: And the TGI (CAKI-1 renal)?
A: > 100 µM

Q: What about the TGI (COLO 205 colon) of the same molecule?
A: > 100 µM

Q: What about the TGI (NCI-H522 lung) of the same molecule?
A: > 100 µM

Q: And the TGI (HT29 colon)?
A: > 100 µM

Q: What about the TGI (SW-620 colon) of the same molecule?
A: > 100 µM

Q: And the TGI (OVCAR-3 ovarian)?
A: > 100 µM

Q: What about the TGI (SK-MEL-2 melanoma) of the same molecule?
A: > 100 µM

Q: For CN1C(=O)NC2(O)c3ccccc3C(=O)C12O (stereo unspecified), which TGI (HOP-92 NSCLC) is on record?
A: > 100 µM

Q: And the TGI (UACC-62 melanoma)?
A: > 100 µM

Q: And the TGI (K-562 leukemia)?
A: > 100 µM

Q: And the TGI (M14 melanoma)?
A: > 100 µM

Q: What about the TGI (HCT-116 colon) of the same molecule?
A: > 100 µM

Q: And the TGI (KM20L2 colon)?
A: > 100 µM

Q: What about the TGI (LOX IMVI melanoma) of the same molecule?
A: > 100 µM

Q: And the TGI (LXFL 529 NSCLC)?
A: > 100 µM

Q: And the TGI (IGROV1 ovarian)?
A: > 100 µM

Q: And the TGI (SR leukemia)?
A: > 100 µM

Q: What about the TGI (U251 CNS) of the same molecule?
A: > 100 µM

Q: And the TGI (EKVX NSCLC)?
A: > 100 µM

Q: What about the TGI (NCI-H23 lung) of the same molecule?
A: > 100 µM

Q: And the TGI (UACC-257 melanoma)?
A: > 100 µM

Q: What about the TGI (SF-268 CNS) of the same molecule?
A: > 100 µM

Q: What about the TGI (HCT-15 colon) of the same molecule?
A: > 100 µM

Q: What about the TGI (OVCAR-4 ovarian) of the same molecule?
A: > 100 µM

Q: What about the TGI (NCI-H460 lung) of the same molecule?
A: > 100 µM

Q: And the TGI (SNB-19 CNS)?
A: > 100 µM

Q: What about the TGI (786-0 renal) of the same molecule?
A: > 100 µM

Q: What about the TGI (KM12 colon) of the same molecule?
A: > 100 µM

Q: And the TGI (SK-MEL-28 melanoma)?
A: > 100 µM

Q: What about the TGI (M19-MEL melanoma) of the same molecule?
A: > 100 µM

Q: And the TGI (SNB-75 CNS)?
A: > 100 µM

Q: And the TGI (MALME-3M melanoma)?
A: > 100 µM

Q: What about the TGI (XF 498 CNS) of the same molecule?
A: > 100 µM

Q: What about the TGI (CCRF-CEM leukemia) of the same molecule?
A: > 100 µM

Q: What about the TGI (A549 NSCLC) of the same molecule?
A: > 100 µM

Q: What about the TGI (OVCAR-8 ovarian) of the same molecule?
A: > 100 µM

Q: And the TGI (RPMI-8226 leukemia)?
A: > 100 µM

Q: And the TGI (SNB-78 CNS)?
A: > 100 µM

Q: What about the TGI (DMS 114 small cell lung) of the same molecule?
A: > 100 µM

Q: And the TGI (SF-295 CNS)?
A: > 100 µM

Q: And the TGI (HL-60(TB) leukemia)?
A: > 100 µM

Q: And the TGI (UO-31 renal)?
A: > 100 µM

Q: And the TGI (TK-10 renal)?
A: > 100 µM

Q: And the TGI (OVCAR-5 ovarian)?
A: > 100 µM

Q: And the TGI (DLD-1 colon)?
A: > 100 µM

Q: And the TGI (CAKI-1 renal)?
A: > 100 µM

Q: And the TGI (COLO 205 colon)?
A: > 100 µM

Q: What about the TGI (MOLT-4 leukemia) of the same molecule?
A: > 100 µM

Q: What about the TGI (NCI-H522 lung) of the same molecule?
A: > 100 µM

Q: And the TGI (SK-OV-3 ovarian)?
A: > 100 µM

Q: And the TGI (HT29 colon)?
A: > 100 µM

Q: What about the TGI (SW-620 colon) of the same molecule?
A: > 100 µM

Q: What about the TGI (OVCAR-3 ovarian) of the same molecule?
A: > 100 µM

Q: And the TGI (SK-MEL-2 melanoma)?
A: > 100 µM
